According to patent US7074925B1, “N-substituted derivatives of 5-oxyiminobarbituric acid” (priority 1998, dated 2006):
In brackets after ≈: the same amount, converted by molar mass.

Columns and labels:
[1] = test system: Human's platelet aggregation; test: Antiaggregational properties, ADP-induced platelet aggregation; assay type: cell-based; details: for % of inhibition of platelet aggregation: 100 μg/ml, ADP […], platelet-enriched human plasma
From the text: Human's platelet aggregation was investigated in plasma of healthy 50±3 years donors that was enriched by thrombocytes, by means of aggregometer FRM-1. […] Magnitude of a maximum non-reversible platelet aggregation in the control samples (solvent) was adopted as 100%, and that in tested samples was counted as the percentage compared to the control.

[2] = Antioxidant action, riboflavine chemiluminescence; assay type: biochemical; details: solvent water, phosphate buffer pH 9.1
From the text: To assess a general antioxidant activity the method of riboflavine chemiluminescence was used. The test substance was introduced into a system consisted of phosphate buffer (pH 9.1), solution of riboflavine, and solution of bivalent iron sulfate. Chemiluminescence was initiated by 0.1% solution of hydrogen peroxide and registered by means of luminometer. […] Ascorbic acid was used as a reference agent.

[3] = test system: Mycobacterium smegmatis ATCC607; test: Antimicrobial action by serial dilution (MIC), M. smegmatis; assay type: cell-based; details: for MIC: Mycolicibacterium smegmatis, ATCC607, M. smegmatis ATCC 607, medium N-1, 72-hour cultivation at 37° C.
[4] = test system: Mycobacterium tuberculosis H37RV; test: Antimicrobial action by serial dilution (MIC), M. tuberculosis; assay type: cell-based; details: Soton medium with 10% horse serum, 72-hour cultivation at 37° C.; for MIC: Mycobacterium tuberculosis
[5] = Psychodepressive activity, behavioral score; assay type: in vivo, mice; details: per oral 300 mg/kg, one hour after dosing; total 60, less than 40 significant
Procedure: Each parameter scores 2 points for an each mouse that had unchanged behavior. The total point sum was 60 (2×10×3 mice). Reducing score to less than 40 one hour after dosing with a substance per oral (300 mg/kg) denoted significant behavioral depression. Haloperidol was utilized as a reference agent.

[6] = Analgesic activity, tail withdrawal from radiant heat; assay type: in vivo, mice
Procedure: The time needed to draw back a tail placed under a directed source of radiant heat was estimated in a group of 3 mice. Prolongation of the response time by more than 50% after intraperitoneal dosing a substance (30 mg/kg) indicated analgesic activity. Morphine sulfate (2 mg/kg) was utilized as a reference agent.

[7] = Hypoglycemic activity after glucose load; assay type: in vivo, mice; details: 100 mg/kg perorally, glucose 1000 mg/kg s.c.
Procedure: Test substance (100 mg/kg) was perorally administrated to fasted mice, and, immediately after that, solution of glucose (1000 mg/kg) was administrated subcutaneously. Glucose content in blood was determined in a hour by the orthotoluidine method. Reducing of glucose level by more than 20% relative to control animals indicated hypoglycemic properties. Glibenclamide (I mg/kg) was utilized as a reference agent.

[8] = Antiulcerous action, water immersion stress with immobilization; assay type: in vivo, rats; details: 20 mg/kg perorally
Procedure: Antiulcerous activity of substances was tested on a model of experimental water immersion stress with immobilization. […] After that, gastric mucous membrane was investigated, number and sizes of ulcers were counted, ulceration index was determined (an average sum of ulcer lengths per one animal in a group).

[9] = Hepatoprotective activity, CCl4 liver damage (AlAT); assay type: in vivo, rats; details: for AlAT: 20 mg/kg perorally 30 minutes before and 7 hours after CCl4, 24 hours, CCl4 control 0.83 ± 0.21, intact 0.27 ± 0.04; for % of reducing AlAT: 20 mg/kg perorally, relative to CCl4 control
Procedure: CCl4 dissolved in 50% olive oil (1 ml/kg) was subcutaneously administrated to rats. Test substances were administrated perorally in a dose of 20 mg/kg 30 minutes before and 7 hours after the CCL4 administration. The activity of alanine-aminotranspherase (AlAT), which is a marker enzyme of liver parenchyma damage, was assessed twenty-four hours later. Reducing of enzyme amount by more than 30% relative to the control group was considered as evidence of hepatoprotective properties of the substance.
Silymarin in a dose of 100 mg/kg was used as a reference agent.

[10] = test system: primary culture of human lymphocytes (IFN-α production); test: Interferon-inducing activity in primary culture of human lymphocytes; assay type: cell-based
Procedure: Interferon synthesis induction caused by the claimed compounds was conducted on a primary culture of human lymphocytes (it is these cells in a human organism that are the main producers of interferons). To obtain lymphocyte culture, fresh blood (within 12 hours after sampling) from healthy donors (not of group II) was used. To separate lymphocytes, heparinized blood obtained from healthy donor was centrifuged in a density gradient of ficoll-verografin of […] in order to extract a fraction of immunocompetent cells. This fraction was selected and diluted with the nutrient medium RPMI-1640, containing 5% of fetal calf serum, 0.3 mg/ml of L-glutamin, 100 un/ml of penicillin, and […] of streptomycin. The concentration of lymphocytes was considered after dying them with methylene blue and calculation of cell number in Goryaev chamber. Initial solutions of the claimed compounds were diluted with the nutrient medium RPMI-1640 so that the final concentrations of the compounds, which were obtained after introduction of lymphocyte suspension, constituted the raw: 100 μg/ml, 10 μg/ml, 1 μg/ml. The final concentration of lymphocytes in the induction mixture was 3×10^6 cell/ml.
In parallels to the test samples the following controls were done: • 1). Control of spontaneous production of interferons (IFN) by lymphocytes. • 2). […] Control of spontaneous production of interferons in presence of DMSO taken in an amount corresponding to the test samples.
Control and test samples were incubated for 24 hours at the temperature of 37° C. After incubation, the samples were centrifuged at 2,000 G to deposit cell elements, and IFN-containing supernatant was separate out of samples; then the supernatant was analyzed for the quantitative content of IFN. Cell deposition was resuspended in the previous volume of nutrient medium, coloured with vital dye trypan blue, and cell number was counted in the Goryaev chamber (as described above) to determine cytotoxic action of the compounds. The quantitative determination of content of IFN in control and test samples was conducted using the immunoenzyme test system Pro Con IF2 Plus, that is intended for determination of IFN-α, which is produced by TOO “Protein contour”. The solid-phase immunoenzyme method, utilizing horse radish peroxidase as an indicator enzyme, was used to determine the quantity of interferon in the samples. Activity of the bonded peroxidase was measured using an automatic photometer for microplates with a microprocessor at the wavelength of 450 nm.
Based on the obtained results, a calibrating curve was formed, which allows to obtain data expressed in international units (IU) of activity, using the microprocessor of the automatic photometer. The results of the analysis are expressed in IU of activity of IFN per ml in the given induction system, which contains 3×10^4 lymphocyte/ml. Each test and control point was investigated in four parallels.
Controls of immunoenzyme reaction: • 1. Control of DMSO with a nutrient medium. • 2. Control of system components (according to an instruction).
The obtained data were undergone a statistical analysis using t-criterion, and calculation of the confident interval of probability at p=0.05 was carried out. Coincidence of results in the parallel tests was analyzed.

[11] = test system: Herpes virus of the type I (HSV-I/Leningrad/248/88); test: Effect on Herpes virus, cytopathogenic action on Vero cells; assay type: cell-based, Herpes Simplex virus; details: compound 100 μg/ml
Procedure: An antiviral activity was determined with respect to Herpes virus of the type I (HSV-I/Leningrad/248/88) by means of commonly accepted method. Viruses were grown on a continuous culture of Vero cells that have been received from the Bank of Cell Cultures of the Institute of Cytology of the Russian Academy of Science.
A virus in a final concentration of […] and the claimed compounds dissolved in DMSO in final concentrations of 100, 10 and 1 mg/l were added to cells that were grown on the RPMI-1640 medium with 10% fetal calf serum and placed into wells of the 96-well plate. 5 separate wells were used for each of tested concentrations of an agent. The plate was incubated during 60 minutes at 38° C. in a CO2-incubator. After the incubation, the virus was removed and then a fresh medium containing claimed compounds in used concentrations was again introduced.
Results were evaluated basing on presence of cytopathogenic action on the cells after 36 hours of incubation at 38° C. in the CO2-incubator.
The next controls were used in the experiment: • 1. Control of cell culture (capability to grow properly) • 2. Control of the virus (evaluation of capability for reproduction) • 3. Control of an antiviral activity of an antiviral drug Acyclovir • 4. Control of compounds (toxicity of compounds) • 5. Control of a solvent (DMSO) for toxicity.
To estimate a cytopathic action of the virus, a quantity of the unchanged cells was calculated in 100 visual fields formed by a special net of an eyepiece of the inverted microscope.

[12] = Determination of maximal tolerable dose; assay type: in vivo; details: oral administration, mice, observed 72 hours; 300 was the maximally utilized one
Procedure: Tested substance was introduced perorally (in dose of 300 mg/kg) through a gastric tube or intraperitoneally (in dose of 100 mg/kg) to no-breed white mice with mass 18-20 g (each tested group consisted of 3 males and 3 females). Then the mouse state was observed during 72 hours. Absence of symptoms characteristic of toxic effects, or absence of animal death during the given time allows to make a conclusion that the toxicity of the test substance is low. If acute toxicity effects are observed, the dose is reduced to find maximal tolerable dose.

## Nc1ncnc2c1ncn2[C@@H]1O[C@H](CO)[C@@H](O)[C@H]1O [Adenosine, reference compound]
[1]; Homo sapiens, Platelet, 5 μg/ml, ADP 2.5 μmol/l
  inhibition at 5 µg/mL: 100%

## O=C1O[C@H]([C@@H](O)CO)C(O)=C1O [Ascorbic acid, reference compound]
[2]
  IC50, suppressing chemiluminescence by 50%: 2.39 µg/mL (≈ 13.6 µM)

## CC(=O)Oc1ccccc1C(=O)O [Aspirin, aspirin, reference compound]
[1]; Homo sapiens, Platelet, 9 μg/ml, ADP 2.5 μmol/l
  inhibition at 9 µg/mL: 100%

## CC[C@@H](CO)NCCN[C@@H](CC)CO [Ethambutol]
[3]
  MIC: 5 µg/mL (≈ 24.5 µM)
[4]
  MIC: 5 µg/mL (≈ 24.5 µM)

## O=C(CCCN1CCC(O)(c2ccc(Cl)cc2)CC1)c1ccc(F)cc1 [Haloperidol, reference compound]
[5]
  Point number (behavioral depression): 27

## NNC(=O)c1ccncc1 [Isoniazid]
[3]
  MIC: 1.5 µg/mL (≈ 10.9 µM)
[4]
  MIC: 0.1 µg/mL (≈ 0.729 µM)

## CN1CC[C@]23c4c5ccc(O)c4O[C@H]2[C@@H](O)C=C[C@H]3[C@H]1C5.O=S(=O)(O)O [Morphine, Morphine sulfate, reference compound]
[6]; before morphine sulfate 2 mg/kg
  Latent period of response, before dosing: 8.3
[6]; morphine sulfate 2 mg/kg
  Latent period of response, 30 minutes after dosing: 14.6

## CC1COc2c(N3CCN(C)CC3)c(F)cc3c(=O)c(C(=O)O)cn1c23 (stereo not drawn) [Ofloxacin]
[3]
  MIC: 0.5 µg/mL (≈ 1.38 µM)
[4]
  MIC: 0.5 µg/mL (≈ 1.38 µM)

## CO[C@H]1/C=C/O[C@@]2(C)Oc3c(C)c(O)c4c(O)c(cc(O)c4c3C2=O)NC(=O)/C(C)=C\C=C\[C@H](C)[C@H](O)[C@@H](C)[C@@H](O)[C@@H](C)[C@H](OC(C)=O)[C@@H]1C [Rifamycin]
[3]
  MIC: 0.25 µg/mL (≈ 0.358 µM)
[4]
  MIC: 0.05 µg/mL (≈ 0.0717 µM)

## [H]/N=C(/N)N[C@H]1[C@H](O)[C@@H](O)[C@H](O[C@@H]2O[C@@H](C)[C@](O)(C=O)[C@H]2O[C@@H]2O[C@@H](CO)[C@H](O)[C@@H](O)[C@@H]2NC)[C@@H](N/C(N)=N\[H])[C@@H]1O [Streptomycin]
[3]
  MIC: 0.15 µg/mL (≈ 0.258 µM)
[4]
  MIC: 0.2 µg/mL (≈ 0.344 µM)

## O=C1NC(=O)N(C2CCCCC2)C(=O)C1=NO [VIII]
[1]
  % of inhibition of platelet aggregation: 68.9 ± 5.3%
[7]
  % change of glucose relative to glucose control: −18%
[7]; after one hour, glucose control 8.26 ± 0.50
  Glucose in blood: 6.77 ± 0.61 mmol/L
[8]; rats, 4 hours stress, control 100
  % of animals with ulcers: 100%
[8]; versus control
  % of reducing number of ulcers: −64%
  % of reducing ulceration index: −35%
[8]; control 8.3 ± 2.5
  Number of lesions: 3.0 ± 1.3
[8]; control 10.5 ± 5.7
  ulceration index: 6.8 ± 4.4
[9]
  AlAT: 0.48 ± 0.19 mmol/L/h
  % of reducing AlAT: −42%

## CN1C(=O)C(=NO)C(=O)N(C)C1=S [XL]
[10]; substance 1 mg/l
  Content of IFN in induction mixture after 24-hour incubation: 5.1 ± 1.0 IU/3 × 10^4 lymph./ml
[10]; substance 10 mg/l
  Content of IFN in induction mixture after 24-hour incubation: 11.3 ± 1.5 IU/3 × 10^4 lymph./ml
[10]; substance 100 mg/l
  Content of IFN in induction mixture after 24-hour incubation: 22.8 ± 1.0 IU/3 × 10^4 lymph./ml
[3]
  MIC, M. smegmatis: 3.1 µg/mL (≈ 15.4 µM)
[4]
  MIC, M. tuberculosis: 12.5 µg/mL (≈ 62.1 µM)

## O=C1NC(=O)N(c2ccc(Br)cc2)C(=O)C1=NO [XXIX]
[1]
  % of inhibition of platelet aggregation: 16.4 ± 3.1%
[5]
  Point number (behavioral depression): 32
[11]; Vero cells, 36 hours, cell control 10000
  Quantity of the unchanged cells (number of cells in 100 visual fields): 3000
[11]; compared to the control of cell culture
  percentage of protection of cells from virus: (30%)
[12]
  Maximal tolerable dose, concentration of test substances: 300 mg/kg
[9]
  AlAT: 0.40 ± 0.04 mmol/L/h
  % of reducing AlAT: −52%

## O=C1NC(=O)N(c2cccc(F)c2)C(=O)C1=NO [XXVI]
[12]
  Maximal tolerable dose, concentration of test substances: 300 mg/kg
